The values below come from patent US20120165559A1, “Compounds Having a Physiological Effect” (priority 2009, published 2012).

In data set [1] the test system is skin and the mucous membranes, particularly of the mouth, of the nasal fossa and of the throat. The experiment in a line: Organoleptic and physiological qualities of the compounds, noted by the inventors and flavor experts. Conditions: for Organoleptic qualities: Tables I-V. The class given is in vivo. The text has this:
The invention is based on the following observation, made by the inventors and backed up by flavor experts, that the physiological effects of N-ethyl-2-(2-isopropyl-5-methylcyclohexyl)acetamide: As mentioned above, the compounds of general formula (I) according to the invention have particular physiological effects. They cause a cool and/or warm sensation on the skin and the mucous membranes, particularly of the mouth, of the nasal fossa and of the throat. Some of these amides cause a more or less intense refreshing physiological effect giving the foods to which they are added a sensation of freshness, whereas others cause a warming physiological effect. Some of them can also cause other physiological effects, such as tingling or a piquant-burning physiological effect characteristic of substances that activate the trigeminal nerve, therefore giving the foods to which they are added a spicy sensation.

Data set [2] concerns panelists. The experiment in a line: Citrus fruit flavoring in fatty filling. The class given is in vivo. Conditions: 10% in a citrus fruit flavoring, flavoring at 0.3% in fatty filling. The procedure:
The molecule was tested at 10% in a citrus fruit flavoring, the flavoring obtained was at a dose of 0.3% in fatty filling.

The subject of data set [3] is panelists. In words: Mint flavoring evaluated in fondant. The class given is in vivo. Conditions: in a mint flavoring, dosage of 50 ppm. Here is the method: The molecule was tested in a mint flavoring and evaluated in fondant at a dosage of 50 ppm.
Data set [4] has as its system panelists / flavor experts. In words: Evaluation in mineral water. The class given is in vivo. The procedure:
The molecule was evaluated in mineral water at a dosage of 30 ppm. […] The evaluation of the organoleptic properties of compound 10 was carried out in mineral water at a concentration of 1 ppm.

For the next data set, the system named is panel of tasters. In words: Flavorings for oro-dental hygiene (mouthwashes, toothpaste). The class given is in vivo. Conditions: alcoholic mouthwash, nonalcoholic mouthwash and toothpaste. The procedure: Compound 10 was tested in various applications: in an alcoholic mouthwash and a nonalcoholic mouthwash and in toothpaste. […] This molecule is very advantageous since it provides a tingling sensation on the edge of the tongue, which is piquant like a capsicum, and salivating. [table] Dosage of flavoring 0.2% Dosage of flavoring 0.2% Dosage of flavoring 1%

In data set [5] the test system is panelists. The experiment in a line: Curry/capsicum flavoring evaluated in crackers. Conditions: flavoring in crackers at 5% (final dosage 500 ppm). The class given is in vivo. The text has this:
Compound 10 was subsequently tested in a curry/capsicum flavoring and evaluated in crackers at 5% (final dosage: 500 ppm). [table]

The test system of the next data set is panel of flavor experts. The experiment in a line: Comparative evaluation of enantiomers 1′ and 1″ and the racemic mixture by a panel of flavor experts. Conditions: enantiomers taken separately versus each other and versus the racemic mixture. The data set is classed as in vivo. An excerpt: The enantiopure compounds 1′ and 1″ obtained in examples 21 and 22 and also the racemic mixture of compound 1 obtained in example 2 were subjected to a panel of flavor experts for a comparative evaluation of the organoleptic and physiological qualities.

Data set [6] has as its system skin and the mucous membranes, particularly of the mouth, of the nasal fossa and of the throat. The following applies: known from WO 2007/089252; cited from earlier work.

Molecules are shown by their SMILES. Where two headings read alike, the source gives them in different places.

Turning to `CC1CCC(C(C)C)C(CC(=O)Nc2ccc(C#N)cc2)C1` (stereo not shown) [Compound 12, N-(4-cyanophenyl)-2-(2-isopropyl-5-methylcyclohexyl)acetamide], the Organoleptic qualities result in [1] is reported as “Warm”.
For the molecule `CNC(=O)CC1CC(C)CCC1C(C)C` (racemic) [Compound 1, N-methyl-2-(2-isopropyl-5-methylcyclohexyl)acetamide], the sensation perceived result in the data set on panelists [2] is “persistent freshness, and a change in the lemon profile”; with panelists [3], “intense freshness which lasts for a few minutes”. Further, in [1] (comparative study among the refreshing agents 1, 19, 15, 17, 18, 8, 9), the “effectiveness as refreshing agent, in terms of intensity and of perception threshold” value is “the most effective”. In addition, the “aromatic note of the drink” value in data set [4] (dosage of 30 ppm) is recorded as “minty, pine, liquoricy, warming, piquant, salivating”. Moreover, the sensation felt entry in data set [4] (dosage of 30 ppm) is on record as “freshness which came very rapidly after swallowing”.
`COc1cc(CNC(=O)CC2CC(C)CCC2C(C)C)ccc1O` (stereo not shown) [Compound 10, N-(4-hydroxy-3-methoxybenzyl)-2-(2-isopropyl-5-methylcyclohexyl)acetamide]: the physiological effect entry in data set [1] is “strong piquant-burning physiological effect”. Moreover, in data set [1], the Organoleptic qualities entry was “Warm and piquant like pepper, with a salivating effect”. Further, the sensation felt result in the data set on panel of tasters is “piquant and warming sensation”; in data set [4] (concentration of 1 ppm), “burning and salivation sensation which comes immediately after depositing on the tongue”. The duration of sensation entry in the data set with panelists [5] is on record as “more longlasting sensation”.
As to `C=C(C)C1CCC(C)CC1CC(=O)NCc1ccc(O)c(OC)c1` (stereo not shown) [Compound 16, N-(4-hydroxy-3-methoxybenzyl)-2-(2-isopropenyl-5-methylcyclohexyl)acetamide], the Organoleptic qualities result in data set [1] was “Powerful piquant with delayed effect, salivating, slightly woody”.
Still for that read-out and setting: as for `CNC(=O)CC(C)C1CC(C)CCC1C(C)C` (stereo not shown) [Compound 9, 3-(2-isopropyl-5-methylcyclohexyl)-N-methylbutyramide], the entry is “Cool”.
Regarding `C=C(C)[C@@H]1CC[C@@H](C)C[C@@H]1CC(=O)NC` [Compound 1″, N-methylamide of (1′R,2′R,5′R)-2-[(2′-isopropenyl-5′-methyl)cyclohex-1-yl]acetic acid], in the data set with panel of flavor experts, the “difference in perception threshold and intensity of the refreshing effect felt” value is listed as “did not make it possible to demonstrate any notable difference”.
Turning to `CC1CCC(C(C)C)C(CC(=O)Nc2ccc(CC#N)cc2)C1` (stereo not shown) [Compound 13, N-(4-cyanomethylphenyl)-2-(2-isopropyl-5-methylcyclohexyl)acetamide], the Organoleptic qualities result in [1] is recorded as “Warm”.
Take `CNC(=O)CC1=C(C(C)C)CCC(C)C1` (stereo not shown) [Compound 17, 2-(2-isopropyl-5-methylcyclohex-1-enyl)-N-methylacetamide]: the melting point amounted to 82 °C. Further, in [1], the Organoleptic qualities entry is on record as “Refreshing”.
As for `CC(=O)OCCNC(=O)CC1CC(C)CCC1C(C)C` (stereo not shown) [Compound 5, [2-(2-isopropyl-5-methylcyclohexyl)acetylamino]ethyl acetate], in [1], the Organoleptic qualities result is reported as “Persistent mentholated”.
Turning to `CNC(=O)C=C1CC(C)CCC1C(C)C` (stereo not shown) [Compound 18, 2-(2-isopropyl-5-methylcyclohexylidene)-N-methylacetamide], in data set [1], the Organoleptic qualities entry is listed as “Refreshing”.
With `C=C(C)C1CCC(C)CC1CC(=O)NC` (stereo not shown) [Compound 15, 2-(2-isopropenyl-5-methylcyclohexyl)-N-methylacetamide], in [1], the Organoleptic qualities result is “Refreshing”.
The same measure, in the same setting: next, `CC1CCC(C(C)C)C(CC(=O)NCC(=O)O)C1` (stereo not shown) [Compound 3, [2-(2-isopropyl-5-methylcyclohexyl)acetylamino]acetatic acid]: “Warm”; `CC1CCC(C(C)C)C(CC(=O)NCCO)C1` (stereo not shown) [Compound 6, N-(2-hydroxyethyl)-2-(2-isopropyl-5-methylcyclohexyl)acetamide]: “Refreshing and tingling,”.
For the molecule `CNC(=O)C(C)C1CC(C)CCC1C(C)C` (stereo not shown) [Compound 8, 2-(2-isopropyl-5-methylcyclohexyl)-N-methylpropionamide], the Organoleptic qualities result in data set [1] is “Piquant, slight”.
Consider `CC(C)CNC(=O)CC1CC(C)CCC1C(C)C` (stereo not shown) [Compound 2, N-isobutyl-2-(2-isopropyl-5-methylcyclohexyl)acetamide], for which the Organoleptic qualities result in [1] is “Refreshing and tingling”.
As to `C=C(C)[C@H]1CC[C@H](C)C[C@H]1CC(=O)NC` [Compound 1′, N-methylamide of (1′S,2′S,5′S)-2-[(2′-isopropenyl-5′-methyl)cyclohex-1-yl]acetic acid], the “difference in perception threshold and intensity of the refreshing effect felt” value in the data set with panel of flavor experts is listed as “did not make it possible to demonstrate any notable difference”.
With `CC1CCC(C(C)C)C(CC(=O)NCc2ccc3c(c2)OCO3)C1` (stereo not shown) [Compound 14, N-benzo[1,3]dioxol-5-ylmethyl-2-(2-isopropyl-5-methylcyclohexyl)acetamide], the Organoleptic qualities result in [1] is “Warm and cold at the back of the throat, with a vanilla note”.
Regarding `CCNC(=O)CC1CC(C)CCC1C(C)C` (stereo not shown) [N-ethyl-2-(2-isopropyl-5-methylcyclohexyl)acetamide], the physiological effect entry in [6] was “refreshing agent”.
With `COC(=O)c1ccccc1NC(=O)CC1CC(C)CCC1C(C)C` (stereo not shown) [Compound 11, N-(2-methyloxycarbonylphenyl)-2-(2-isopropyl-5-methylcyclohexyl)acetamide], in data set [1], the physiological effect entry is given as “notable warming physiological effect, devoid of the piquant-burning aspect” and the Organoleptic qualities result was “Warm”.
`CNC(=O)CC1C=C(C)CCC1C(C)C` (stereo not shown) [Compound 19, 2-(6-isopropyl-3-methylcyclohex-2-enyl)-N-methylacetamide]: the Organoleptic qualities result in data set [1] was “Refreshing with a delayed”.
On the same count and under the same terms, as for `CC1CCC(C(C)C)C(CC(=O)NCC(C)(C)O)C1` (stereo not shown) [Compound 7, N-(2-hydroxy-2-methylpropyl)-2-(2-isopropyl-5-methylcyclohexyl)acetamide], the entry is “Woody, piquant, and cold,”.

Broadly, the melting point is the temperature of the solid-liquid transition.
